Experiment [1] deals with T1, NRC1 NB-ARC domain (Solanum lycopersicum, UniProt A1X877, D268N).
T1 construct: NB-ARC domain, residues 150-494; E. coli Lemo21(DE3) (pOPIN-S3C, 6xHis-SUMO) or Sf9 cells (pOPIN-F, 6xHis); N-terminal tag cut with 3C protease; 346 residues in expressed construct; about 40 kDa monomer
Put plainly: luciferase assay of nucleotide released by boiling, ADP converted to ATP with pyruvate kinase. In kind it is binding. The settings on record: co-purified ligand, no ADP added; protein from Sf9 cells; Walker B mutant; no ATP detected.

The target in experiment [2] is T2, NRC1 NB-ARC domain (Solanum lycopersicum, UniProt A1X877).
T2 construct: NB-ARC domain, residues 150-494; E. coli Lemo21(DE3) (pOPIN-S3C, 6xHis-SUMO) or Sf9 cells (pOPIN-F, 6xHis); N-terminal tag cut with 3C protease; 346 residues in expressed construct; about 40 kDa monomer
T2 sequence (A1X877 entry or part of it): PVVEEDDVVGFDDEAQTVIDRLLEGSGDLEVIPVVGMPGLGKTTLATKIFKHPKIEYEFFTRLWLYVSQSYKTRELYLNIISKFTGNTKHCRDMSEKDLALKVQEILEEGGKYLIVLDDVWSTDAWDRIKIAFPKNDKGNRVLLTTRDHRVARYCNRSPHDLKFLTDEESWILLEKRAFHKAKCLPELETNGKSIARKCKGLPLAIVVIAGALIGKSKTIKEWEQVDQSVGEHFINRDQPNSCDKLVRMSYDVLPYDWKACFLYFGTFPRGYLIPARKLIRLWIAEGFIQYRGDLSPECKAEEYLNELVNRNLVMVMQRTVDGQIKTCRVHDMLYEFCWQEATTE
Put plainly: X-ray crystal structure, […] A (native); SeMet SAD map at […] A. The conditions noted are these: co-purified ligand; nucleotide-binding pocket; E. coli-expressed protein; crystals at pH 4.5.

Experiment [3] has as its target T2, NRC1 NB-ARC domain. Put plainly: luciferase assay of nucleotide released by boiling, ADP converted to ATP with pyruvate kinase. In kind it is binding. The conditions noted are these: co-purified ligand, no ADP added; protein from E. coli and from Sf9 cells; no ATP detected.

T1 sequence (A1X877 entry or part of it D268N): as the sequence (A1X877 entry or part of it) above, with D119N counted along it

In the case of `Nc1ncnc2c1ncn2[C@@H]1O[C@H](COP(=O)(O)OP(=O)(O)O)[C@@H](O)[C@H]1O` [ADP], the “% ADP occupancy” value is reported as “NRC1 NB-ARC^D268N, a mutant designed to abolish ATPase activity, also co-purified with ADP” on NRC1 NB-ARC domain [1] and “all three NRC1 NB-ARC proteins co-purified with ADP with high occupancy” on NRC1 NB-ARC domain [3]. In addition, at NRC1 NB-ARC domain [2], the “X-ray crystal structure, 2.5 A (native); SeMet SAD map at 3.03 A” value was “allowed us to unambiguously position a molecule of ADP, and the side-chains of interacting residues”.
